Target: human Kv7.2 (Homo sapiens (Human), UniProt O43526)
Experiment: SyncroPatch 384 electrophysiology, activation of Kv7.2 in CHO cells
Type: cell-based
Details: for EC50: CHO cells stably expressing human Kv7.2, potassium current at -90 mV repolarizing step, in presence of zinc pyrithione; for Emax: CHO, Kv7.2 activation max %, relative to 30 μM ML-213 max activation
Experimental: The potency of Kv7 potentiators was determined using the SyncroPatch 384 (Nanion) high throughput electrophysiology platform.
CHO cells stably expressing either human Kv7.2, Kv7.4 or Kv7.5/7.3 under a constitutive CMV promoter were used for these studies. Cells were maintained in F12 Hams+1 mM L-glutamine (Hyclone) supplemented with 10% FBS (Sigma), 0.3×NEAA (Non-essential Gamino-acids) and 400 ug/ml G418 at 37° C. in 5% CO2. Cells were cultured in T-225 flasks (Nunc) for 2-3 days to reach 85-95% confluence prior to electrophysiological recording.
Earle's balanced salt solution (in mM): 135 NaCl, 5.4 KCl, 5 Glucose, 2 CaCl2, 1 MgCl2, 5 HEPES, pH 7.4. Seal enhancer solution (in mM): 90 NaCl, 3 KCl, 35 CaCl2, 10 MgCl2, 10 HEPES, pH 7.4. Extracellular recording solution (in mM): 71 NaCl, 70 NMDG, 13 KCl, 5 Glucose, 2 CaCl2, 1 MgCl2, 10 HEPES, pH 7.4. Intracellular recording solution (in mM): 130 KF, 20 KCl, 4 EGTA, 10 HEPES, 2 EDTA, 0.01 Escin, pH 7.2.
Cells were harvested for electrophysiological recording upon reaching appropriate confluence. Cells were first washed in DPBS (Hyclone, Cat #SH30028.03) and then 2 ml of Accutase (MP Biomedicals #1000449) was added at 28° C. until ˜90% of cells were suspended. F12 HAM's media+1 mM L-glutamine (Hyclone, SH30026.02) was then added to the flask to dilute the accutase. Cells were then triturated until a single cell suspension was achieved, a cell count was performed, and cells were centrifuged for 2 min. at 1,000 rpm. Media was then aspirated, and cells were resuspended in Earle's balanced salt solution to a concentration of 0.75×10^6 cells/ml and allowed to recover for 25 min at 10° C.
At the beginning of each assay, 20 μl of cell suspension was dispensed into each well of a multi-hole 384-well SyncroPatch chip by the onboard pipettor. Cell sealing was initiated, and seal enhancer solution was added to facilitate seal formation. Upon completion of sealing, cells were washed 3 times with extracellular recording solution and the assay voltage protocol was started. Human Kv7.2, Kv7.4 or Kv7.5/7.3 channels were evaluated using a voltage protocol in which cells were voltage-clamped at a holding potential of −60 mV. Potassium currents were continuously activated with a series of three voltage steps to −30 mV for 3 seconds, 40 mV for 1 second and −90 mV for 4 seconds with 12 seconds between successive voltage sweeps. Potassium currents were measured from the −90 mV repolarizing step. Baseline current was assessed for 3.5 minutes prior to the addition of 5.6 μM zinc pyrithione (1 μM for Kv7.4). Kv7.2, Kv7.4 or Kv7.5/7.3 current in the presence of zinc pyrithione was acquired over five minutes to allow channels to reach steady state activity prior to addition of test agents. Channel activity was monitored for three minutes preceding the addition of 30 μM ML-213 (3 minutes) to achieve maximum activation. 150 mM TEA with 10 μM XE-991 was applied for 2 minutes to measure the leak current during maximum inhibition of Kv7.2, Kv7.4 or Kv7.5/7.3 channels.
Data were collected on the SyncroPatch platform using PatchControl software (Nanion) and processed and analyzed using DataControl Software (Nanion). Percent activation was calculated from potassium current as follows: The average current for the 5 sweeps in the presence of zinc pyrithione immediately preceding test agent addition was taken as the ‘control’ data. Likewise, the average potassium current in the presence of test agents 5 sweeps immediately preceding addition of 30 μM ML-213 was determined for ‘drug’ data. The average potassium current 5 sweeps immediately prior to addition of 150 mM TEA+10 μM XE-991 was determined for ‘max activation’ data while average currents from 5 sweeps immediately following addition of TEA was determined for ‘max inhibition’ data. Percent activation for each of the 384-wells of a sealchip was calculated as ((‘drug’−‘max inhibition’)/(‘max activation’−‘max inhibition’))*100 with Pipeline Pilot (Accelrys). […]

SMILES	EC50 [nM]	Emax [%]
[2H]C([2H])(NC(=O)N[C@@H]1C[C@H]1C(F)(F)F)c1ccnc(OC(F)F)c1 (racemic) [Example 50, 1-[dideuterio-[2-(difluoromethoxy)pyridin-4-yl]methyl]-3-[rac-(1R,2R)-2-(trifluoromethyl)cyclopropyl]urea]	620	47
O=C(NCc1ccnc(OC(F)F)n1)N[C@@H]1C[C@H]1C(F)(F)F [Example 49, 1-[[2-(difluoromethoxy)pyrimidin-4-yl]methyl]-3-[(1R,2R)-2-(trifluoromethyl)cyclopropyl]urea]	3830	42
COc1cc(CNC(=O)N[C@@H]2C[C@H]2c2ccccc2)ccn1 [Example 9, 1-[(2-methoxypyridin-4-yl)methyl]-3-[(1R,2S)-2-phenylcyclopropyl]urea]	3410	78
O=C(NCc1ccnc(-c2cnsc2)c1)N[C@@H]1C[C@H]1C1CCCCC1 (racemic) [Example 40, 1-[rac-(1R,2S)-2-cyclohexylcyclopropyl]-3-[[2-(1,2-thiazol-4-yl)pyridin-4-yl]methyl]urea]	780	57
C[C@H](NC(=O)N[C@@H]1C[C@H]1c1ccccc1)c1ccnc(OC(F)F)c1 [Example 30, 1-((S)-1-(2-(difluoromethoxy)pyridin-4-yl)ethyl)-3-((1R,2S)-2-phenylcyclopropyl)urea]	210	72
O=C(NCc1ccnc(C(F)(F)F)c1)N[C@@H]1C[C@H]1c1ccccc1 [Example 22, 1-[(1R,2S)-2-phenylcyclopropyl]-3-[[2-(trifluoromethyl)pyridin-4-yl]methyl]urea]	720	53
O=C(NCc1ccnc(OCC(F)F)c1)N[C@@H]1C[C@H]1c1ccccc1 [Example 35, 1-[[2-(2,2-difluoroethoxy)pyridin-4-yl]methyl]-3-[(1R,2S)-2-phenylcyclopropyl]urea]	200	66
O=C(NCc1ccnc(-n2cccn2)c1)N[C@@H]1C[C@H]1c1ccccc1 [Example 13, 1-[(1R,2S)-2-phenylcyclopropyl]-3-[(2-pyrazol-1-ylpyridin-4-yl)methyl]urea]	1340	74
O=C(NCc1ccnc(OC(F)F)c1)N[C@@H]1C[C@H]1C(F)(F)F [Example 41, 1-[[2-(difluoromethoxy)pyridin-4-yl]methyl]-3-[(1R,2R)-2-(trifluoromethyl)cyclopropyl]urea]	230	54
C[C@H](NC(=O)N[C@@H]1C[C@H]1c1ccccc1)c1ccnc(-n2cnc(C(F)(F)F)c2)c1 [Example 33, 1-[(1R,2S)-2-phenylcyclopropyl]-3-[(1S)-1-[2-[4-(trifluoromethyl)imidazol-1-yl]pyridin-4-yl]ethyl]urea]	310	40
C[C@@H](NC(=O)N[C@@H]1C[C@H]1c1ccccc1)c1ccnc(OC(F)F)c1 (stereo in doubt) [Example 38]	3810	42
O=C(NCc1ccnc(OC2CCOCC2)c1)NC1CC1C1CCCCC1 (centres unmarked) [Example 45, 1-(2-cyclohexylcyclopropyl)-3-[[2-(oxan-4-yloxy)pyridin-4-yl]methyl]urea]	880	77
O=C(NCc1ccnc(-c2cnco2)c1)N[C@@H]1C[C@H]1C1CCCCC1 (racemic) [Example 23, 1-[[2-(1,3-oxazol-5-yl)pyridin-4-yl]methyl]-3-[rac-(1R,2S)-2-cyclohexylcyclopropyl]urea]	920	63
O=C(NCc1ccnc(-n2cnc(C(F)(F)F)c2)c1)N[C@@H]1C[C@H]1c1ccccc1 [Example 31, 1-[(1R,2S)-2-phenylcyclopropyl]-3-[[2-[4-(trifluoromethyl)imidazol-1-yl]pyridin-4-yl]methyl]urea]	500	44
O=C(NCc1cccc(Cl)n1)N[C@@H]1C[C@H]1C1CCCCC1 (racemic) [Example 3, 1-[(6-chloropyridin-2-yl)methyl]-3-[rac-(1R,2S)-2-cyclohexylcyclopropyl]urea]	1540	77
C[C@@]1(NC(=O)NCc2ccnc(OC(F)F)c2)C[C@H]1c1ccccc1 (racemic) [Example 36, 1-[[2-(difluoromethoxy)pyridin-4-yl]methyl]-3-[rac-(1R,2S)-1-methyl-2-phenylcyclopropyl]urea]	120	69
O=C(NCc1ccnc(OCC(F)(F)F)c1)N[C@@H]1C[C@H]1c1ccccc1 [Example 14, 1-[(1R,2S)-2-phenylcyclopropyl]-3-[[2-(2,2,2-trifluoroethoxy)pyridin-4-yl]methyl]urea]	70	71
C[C@]1(C(F)(F)F)C[C@@H]1NC(=O)NCc1ccnc(OC(F)F)c1 (racemic) [Example 47, 1-[[2-(difluoromethoxy)pyridin-4-yl]methyl]-3-[rac-(1R,2R)-2-methyl-2-(trifluoromethyl)cyclopropyl]urea]	50	77
O=C(NCc1ccnc(OC(F)F)c1)N[C@@H]1C[C@H]1c1ccccc1 [Example 7, 1-[[2-(difluoromethoxy)pyridin-4-yl]methyl]-3-[(1R,2S)-2-phenylcyclopropyl]urea]	100	71
O=C(NCc1ccnc(OCC(F)CF)c1)N[C@@H]1C[C@H]1c1ccccc1 (stereo partly drawn) [Example 48, 1-[[2-(2,3-difluoropropoxy)pyridin-4-yl]methyl]-3-[(1R,2S)-2-phenylcyclopropyl]urea]	570	70
N#Cc1cc(CNC(=O)N[C@@H]2C[C@H]2c2ccccc2)ccn1 [Example 10, 1-[(2-cyanopyridin-4-yl)methyl]-3-[(1R,2S)-2-phenylcyclopropyl]urea]	1190	43
O=C(NCc1ccnc(Cl)c1)N[C@@H]1C[C@H]1c1ccccc1 [Example 19, 1-[(2-chloropyridin-4-yl)methyl]-3-[(1R,2S)-2-phenylcyclopropyl]urea]	6830	60
O=C(NCc1ccnc(-n2ccnc2)c1)NC1CC1C1CCCCC1 (centres unmarked) [Example 11, 1-(2-cyclohexylcyclopropyl)-3-[(2-imidazol-1-ylpyridin-4-yl)methyl]urea]	2140	52
CC(F)(F)c1cc(CNC(=O)N[C@@H]2C[C@H]2c2ccccc2)ccn1 [Example 26, 1-[[2-(1,1-difluoroethyl)pyridin-4-yl]methyl]-3-[(1R,2S)-2-phenylcyclopropyl]urea]	1560	97
COc1cc([C@H](C)NC(=O)N[C@@H]2C[C@H]2c2ccccc2)ccn1 [Example 29, 1-[(1S)-1-(2-methoxypyridin-4-yl)ethyl]-3-[(1R,2S)-2-phenylcyclopropyl]urea]	520	47
